This is an account of results in ChEMBL document CHEMBL1201862, “PubChem BioAssay data set” (2004).

Molecules are shown by their SMILES.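 Each compound was tested at five concentrations against cells in 96-well plates for 48 hours. Here, GI50 denotes the concentration required for 50% inhibition of growth.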 Activity calls are given as the source filed them. Rule as the data show it: active = GI50 up to about 1.1 µM and inactive = higher.

Test systems include EKVX; NCI-H460; SF-268; SNB-75; DMS-114; HCT-15; CAKI-1; NCI-H226; HOP-62; SK-MEL-28; HCC 2998; M19-MEL; NCI-H522; UACC-257; HCT-116; NCI-H23; RXF 393; KM12; COLO 205; HOP-18.
What all share (experiment): NCI tumour cell line growth inhibition, 48 h

For `COC(=O)C(Cc1ccc2c(c1)OCO2)(NC(=O)c1ccccc1)P(=O)(OC)OC` (stereo unspecified), the GI50 is > 100 µM (inactive) in the assay on EKVX; > 100 µM (inactive) in the assay with NCI-H460; > 100 µM (inactive) in the assay with SF-268; > 100 µM (inactive) in the assay on SNB-75; > 100 µM (inactive) in the assay with DMS-114; above 100 µM in the assay with HCT-15. For the same compound, the GI50 with CAKI-1, in the assay on NCI-H226, in the assay on HOP-62, in the assay with SK-MEL-28, with HCC 2998 and in the assay on M19-MEL was > 100 µM (inactive) throughout. Also, the GI50 in the assay on NCI-H522, in the assay with UACC-257, with HCT-116, in the assay with NCI-H23, in the assay on RXF 393 and in the assay on KM12 was > 100 µM (inactive) in each case. Further, the GI50 in the assay with COLO 205 was > 100 µM (inactive).
Turning to `O=Cc1ccccc1CCn1c(=O)c2cc3c(=O)n(CCc4ccccc4C=O)c(=O)c3cc2c1=O`, the GI50 is > 100 µM (inactive) with NCI-H460; > 100 µM (inactive) in the assay on SF-268; > 100 µM (inactive) in the assay on SNB-75; > 100 µM (inactive) in the assay on DMS-114; above 100 µM in the assay with HCT-15; > 100 µM (inactive) in the assay with NCI-H226. Moreover, the GI50 in the assay with SK-MEL-28, in the assay with NCI-H522, in the assay with UACC-257, in the assay on HCT-116, in the assay with NCI-H23 and in the assay with RXF 393 was > 100 µM (inactive) each time. Further, the GI50 in the assay with KM12 is > 100 µM (inactive).
For `O=c1ccc2ccc(CBr)cc2o1`, the GI50 was 2.49 µM (inactive) with EKVX; 10.8 µM (inactive) in the assay on NCI-H460; > 100 µM (inactive) with SNB-75; 1.87 µM in the assay on HCT-15; 1.55 µM (inactive) in the assay on CAKI-1; 10.7 µM (inactive) in the assay with NCI-H226. Moreover, the GI50 was 17 µM (inactive) with HOP-62; 13.6 µM (inactive) in the assay on SK-MEL-28; 3.34 µM (inactive) in the assay on HCC 2998; 1.26 µM (inactive) in the assay on NCI-H522; 11.7 µM (inactive) in the assay on UACC-257; 1.88 µM (inactive) in the assay with HCT-116. Moreover, the GI50 in the assay on NCI-H23 is 2.92 µM (inactive); in the assay with RXF 393, 1.94 µM (inactive).
Consider `COc1cc(C2S/C(=C/c3ccccc3)C(=O)N2c2ccccc2Cl)cc(OC)c1OC` (stereo unspecified), for which the GI50 was 13.6 µM (inactive) in the assay on EKVX; 30.3 µM (inactive) in the assay on SF-268; 6.21 µM (inactive) in the assay with SNB-75; 27.5 µM in the assay on HCT-15; 32.6 µM (inactive) with CAKI-1; > 100 µM (inactive) in the assay with NCI-H226. Also, the GI50 in the assay on HOP-62 was 31.3 µM (inactive); in the assay with SK-MEL-28, 42.2 µM (inactive); with HCC 2998 it was 33 µM (inactive); in the assay with NCI-H522, 12.4 µM (inactive); with UACC-257, 45.5 µM (inactive); with HCT-116, 19 µM (inactive). For the same compound, the GI50 in the assay on NCI-H23 is 24.3 µM (inactive); in the assay on RXF 393, 9.53 µM (inactive); in the assay on KM12, 22 µM (inactive); in the assay on COLO 205, 33.3 µM (inactive).
As to `COc1ccc2nc(-n3c(/C=C/c4ccccc4O)nc4ccccc4c3=O)sc2c1`, the GI50 with EKVX was 8.51 µM (inactive); in the assay with NCI-H460, > 100 µM (inactive); in the assay on SF-268, > 100 µM (inactive); in the assay on SNB-75, 72.1 µM (inactive); in the assay with HCT-15, 60.1 µM; in the assay on CAKI-1 it was 46 µM (inactive). The GI50 with NCI-H226 was 36 µM (inactive); with HOP-62, > 100 µM (inactive); in the assay with SK-MEL-28, 31.4 µM (inactive); with HCC 2998, > 100 µM (inactive); in the assay with NCI-H522 it was 58.1 µM (inactive); with UACC-257, > 100 µM (inactive). Also, the GI50 was 25.5 µM (inactive) with HCT-116; 47.6 µM (inactive) with NCI-H23; 71.6 µM (inactive) in the assay with RXF 393; 64.4 µM (inactive) in the assay with KM12; > 100 µM (inactive) in the assay with COLO 205.
Turning to `Cc1ccc(S(=O)(=O)OCCN(CCOS(=O)(=O)c2ccc(C)cc2)c2ccc(C=O)cc2)cc1`, the GI50 in the assay with EKVX is 30.8 µM (inactive); in the assay with NCI-H460, 21.9 µM (inactive); with SF-268 it was 46.6 µM (inactive); with HCT-15, 30.1 µM; with CAKI-1, 21.1 µM (inactive); in the assay with SK-MEL-28, 31.4 µM (inactive). Further, the GI50 in the assay with HCC 2998 was 28.7 µM (inactive); with NCI-H522, 10.8 µM (inactive); in the assay with UACC-257 it was 24.8 µM (inactive); in the assay on HCT-116, 30.1 µM (inactive); in the assay on NCI-H23, 36.2 µM (inactive); in the assay on RXF 393, 15.7 µM (inactive). Moreover, the GI50 with KM12 is 22.8 µM (inactive); with COLO 205, 28.1 µM (inactive).
`CC(=O)C(CN1CCCCC1)C(c1ccccc1)c1c(O)c2ccccc2oc1=O` (stereo unspecified): the GI50 in the assay with EKVX is > 100 µM (inactive); in the assay with NCI-H460 it was > 100 µM (inactive); with SF-268 it was > 100 µM (inactive); in the assay on SNB-75 it was > 100 µM (inactive); in the assay on HCT-15, above 100 µM; with CAKI-1 it was > 100 µM (inactive). Also, the GI50 in the assay on NCI-H226, in the assay on HOP-62, in the assay on SK-MEL-28, in the assay on HCC 2998, in the assay on NCI-H522 and in the assay with UACC-257 was > 100 µM (inactive) each time. Besides, the GI50 in the assay with HCT-116, with NCI-H23, in the assay on RXF 393, in the assay on KM12 and with COLO 205 was > 100 µM (inactive) in each case.
Take `Cc1cc(O)nc(NN2C(Cl)C(=O)C2c2cccc(Cl)c2)n1` (stereo unspecified): the GI50 is 36.6 µM (inactive) in the assay on EKVX; 18.4 µM (inactive) in the assay with NCI-H460; 18.5 µM (inactive) in the assay with SF-268; 20.8 µM (inactive) with SNB-75; 22.2 µM (inactive) in the assay with DMS-114; 17.4 µM in the assay on HCT-15. Also, the GI50 was 24 µM (inactive) with HOP-18; 27.1 µM (inactive) with HOP-62; 22.4 µM (inactive) in the assay with SK-MEL-28; 31.2 µM (inactive) with HCC 2998; 33.9 µM (inactive) in the assay with M19-MEL; 32.8 µM (inactive) in the assay with UACC-257. The GI50 is > 10 µM (inactive) in the assay on HCT-116; 20.1 µM (inactive) in the assay with NCI-H23; 8.18 µM (inactive) in the assay on RXF 393; 21.7 µM (inactive) in the assay on KM12; > 10 µM (inactive) in the assay on COLO 205.
Turning to `CCCCCCCCCCCCSC(=S)c1c(C)[nH]n(CCCCCCCCCCCC)c1=O`, the GI50 with EKVX was 27.5 µM (inactive); in the assay on NCI-H460 it was 50.5 µM (inactive); in the assay on SF-268, 48.9 µM (inactive); in the assay on SNB-75, > 100 µM (inactive); in the assay on DMS-114 it was 46.1 µM (inactive); in the assay on HCT-15, 65.3 µM. Moreover, the GI50 in the assay with HOP-18 was 65 µM (inactive); in the assay with CAKI-1, > 100 µM (inactive); in the assay with NCI-H226 it was > 100 µM (inactive); in the assay on HOP-62, > 100 µM (inactive); in the assay with SK-MEL-28, > 100 µM (inactive); in the assay with HCC 2998 it was > 100 µM (inactive). Besides, the GI50 in the assay on M19-MEL is 31.6 µM (inactive); in the assay with NCI-H522, 99.5 µM (inactive); with UACC-257 it was > 100 µM (inactive); with HCT-116, 43.6 µM (inactive); in the assay with NCI-H23, > 100 µM (inactive); with KM12, > 100 µM (inactive). Moreover, the GI50 with COLO 205 is > 100 µM (inactive).
